Measured values taken from patent US11746116B2, “Antibiotic resistance breakers” (KING'S COLLEGE LONDON, priority 2017, dated 2023).
In brackets after ≈: the same amount, converted by molar mass.

Legend:
SA10 = experiment: MIC, extended Gram-positive panel; format: cell-based, S. aureus
SE1 = format: cell-based, S. epidermidis
VRE12201 = experiment: MIC, microdilution broth method; format: cell-based, Enterococcus faecalis; details: VRE12201; in µg/mL
SA1 = experiment: MIC, extended Gram-positive panel; format: cell-based, S. aureus
SA2 = experiment: MIC, extended Gram-positive panel; format: cell-based, S. aureus
MSSA9144 = experiment: MIC, microdilution broth method; format: cell-based, Staphylococcus aureus; details: MSSA9144; in µg/mL
SA7 = experiment: MIC, extended Gram-positive panel; format: cell-based, S. aureus
SA5 = format: cell-based, S. aureus
SA4 = experiment: MIC, extended Gram-positive panel; format: cell-based, S. aureus
M6 = experiment: MIC, microdilution broth method; format: cell-based; details: M6, in µg/mL
SH1 = experiment: MIC, extended Gram-positive panel; format: cell-based, S. haemolyticus
KP13368 = experiment: MIC, microdilution broth method; format: cell-based; details: KP13368, in µg/mL
VRE12204 = experiment: MIC, microdilution broth method; format: cell-based, Enterococcus faecium; details: VRE12204; in µg/mL
EMRSA16 = experiment: MIC, microdilution broth method; format: cell-based, Staphylococcus aureus; details: EMRSA16; in µg/mL
EMRSA 15 strain = experiment: Reserpine (growth) assay for efflux; format: cell-based, Staphylococcus aureus; details: multidrug-resistant EMRSA 15 strain; compound 0.25×MIC, reserpine 10 μg/mL
SA8 = experiment: MIC, extended Gram-positive panel; format: cell-based, S. aureus
EF2 = experiment: MIC, extended Gram-positive panel; format: cell-based, E.faecium
AYE = experiment: MIC, microdilution broth method; format: cell-based, Acinetobacter baumannii; details: AYE, in µg/mL
PA13437 = experiment: MIC, microdilution broth method; format: cell-based; details: PA13437
SA6 = experiment: MIC, extended Gram-positive panel; format: cell-based, S. aureus
MSSA 9144 strain = experiment: Reserpine (growth) assay for efflux; format: cell-based, Staphylococcus aureus; details: multidrug-resistant MSSA 9144 strain; compound 0.25×MIC, reserpine 10 μg/mL
Ab17978 = experiment: MIC, microdilution broth method; format: cell-based; details: Ab17978, in µg/mL
SA9 = format: cell-based, S. aureus
SA3 = format: cell-based, S. aureus
EF1 = experiment: MIC, extended Gram-positive panel; format: cell-based, E.faecalis
EMRSA15 = experiment: MIC, microdilution broth method; format: cell-based, Staphylococcus aureus; details: EMRSA15; in µg/mL
VSE775 = experiment: MIC, microdilution broth method; format: cell-based, Enterococcus faecalis; details: VSE775; in µg/mL
PA01 = experiment: MIC, microdilution broth method; format: cell-based, Pseudomonas aeruginosa; details: PA01, in µg/mL
W1 = experiment: MIC, A. baumannii extended panel; format: cell-based
13302 = experiment: MIC, A. baumannii extended panel; format: cell-based; details: A. baumannii 13302
UKA7 = experiment: MIC, A. baumannii extended panel; format: cell-based
UKA12 = experiment: MIC, A. baumannii extended panel; format: cell-based
UKA16 = experiment: MIC, A. baumannii extended panel; format: cell-based
OXA23.1 = experiment: MIC, A. baumannii extended panel; format: cell-based; details: A. baumannii OXA23.1
UKA13 = experiment: MIC, A. baumannii extended panel; format: cell-based
UKA1 = experiment: MIC, A. baumannii extended panel; format: cell-based
A601 = experiment: MIC, A. baumannii extended panel; format: cell-based
12156 = experiment: MIC, A. baumannii extended panel; format: cell-based; details: A. baumannii 12156

Question: Which results are given for `CCn1cc(C(=O)O)c(=O)c2cc(F)c(N3CCN(Cc4cccc5ccccc45)CC3)cc21` [ML-77-021]?
Answer: MIC (SA10; S. aureus SA10, gyrA, 84:S => L, grlA, 80:S => F): 2 µg/mL (≈ 4.35 µM); Fold decrease (SA10; SA10, MIC of parent (CIP or NOR) versus ARB-linked derivative): 64 fold; Fold decrease (SE1): 1-4 fold; MIC (SE1; in µg/mL): 1; MIC (VRE12201): 4; MIC (SA1; S. aureus SA1, gyrA, 84:S => L, grlA, 80:S => F): 4 µg/mL (≈ 8.7 µM); Fold decrease (SA1; SA1, MIC of parent (CIP or NOR) versus ARB-linked derivative): ≥32 fold; MIC (SA2; S. aureus SA2): 1 µg/mL (≈ 2.18 µM); Fold decrease (SA2; SA2, MIC of parent (CIP or NOR) versus ARB-linked derivative): 8-64 fold; MIC (MSSA9144): 1; MIC (SA7; S. aureus SA7, gyrA, 84:S => L, grlA, 80:S => F): 2 µg/mL (≈ 4.35 µM); Fold decrease (SA7; SA7, MIC of parent (CIP or NOR) versus ARB-linked derivative): ≥64 fold; Fold decrease (SA5): ≥64 fold; MIC (SA5): 2 µg/mL (≈ 4.35 µM); MIC (SA4; S. aureus SA4, gyrA, 84:S => L, grlA, 80:S => F): 2 µg/mL (≈ 4.35 µM); Fold decrease (SA4; SA4, MIC of parent (CIP or NOR) versus ARB-linked derivative): 32 fold; MIC (M6; +PMBN): 1-4; MIC (M6; Normal (no PMBN)): 32; MIC (SH1; S. haemolyticus SH1): 4 µg/mL (≈ 8.7 µM); Fold decrease (SH1; SH1, MIC of parent (CIP or NOR) versus ARB-linked derivative): 32 fold; MIC (KP13368; +PMBN): 4-8; MIC (KP13368; Normal (no PMBN)): >32; MIC (VRE12204): 2; MIC (EMRSA16): 2; efflux by the strain (reserpine assay) (EMRSA 15 strain): not effluxed; MIC (SA8; S. aureus SA8, gyrA, 84:S => L, grlA, 80:S => F): 2 µg/mL (≈ 4.35 µM); Fold decrease (SA8; SA8, MIC of parent (CIP or NOR) versus ARB-linked derivative): 64 fold; MIC (EF2; E.faecium EF2, in µg/mL): 2-4; Fold decrease (EF2; EF2, MIC of parent (CIP or NOR) versus ARB-linked derivative): ≥32 fold; MIC (AYE; +PMBN): >32; MIC (AYE; Normal (no PMBN)): >32; MIC (PA13437; +PMBN): > 32 µg/mL; MIC (PA13437; Normal (no PMBN)): > 32 µg/mL; MIC (SA6; S. aureus SA6, gyrA, 84:S => V, grlA, 80:S => F): 2 µg/mL (≈ 4.35 µM); Fold decrease (SA6; SA6, MIC of parent (CIP or NOR) versus ARB-linked derivative): ≥64 fold; efflux by the strain (reserpine assay) (MSSA 9144 strain): not effluxed; MIC (Ab17978; +PMBN): 0.5; MIC (Ab17978; Normal (no PMBN)): 32; MIC (SA9; S. aureus SA9, gyrA, 84:S => L, grlA, 80:S => F): 2 µg/mL (≈ 4.35 µM); Fold decrease (SA9; SA9, MIC of parent (CIP or NOR) versus ARB-linked derivative): ≥64 fold; Fold decrease (SA3): 32 fold; MIC (SA3): 2 µg/mL (≈ 4.35 µM); MIC (EF1; E.faecalis EF1): 4 µg/mL (≈ 8.7 µM); Fold decrease (EF1; EF1, MIC of parent (CIP or NOR) versus ARB-linked derivative): ≥32 fold; MIC (EMRSA15): 2; MIC (VSE775): 2; MIC (PA01; +PMBN): 0.06-0.25; MIC (PA01; Normal (no PMBN)): >32

Question: What does the source list for `Cl.O=C(O)c1cn(C2CC2)c2cc(N3CCN(Cc4ccc(CO)cc4)CC3)c(F)cc2c1=O` [ML-77-158]?
Answer: MIC (W1): 32 µg/mL; MIC 13302: 64 µg/mL; MIC (UKA7): 64 µg/mL; MIC (UKA12): 32 µg/mL; MIC (UKA16): 32 µg/mL; MIC (OXA23.1): 64 µg/mL; MIC (UKA13): 32 µg/mL; MIC (UKA1): 16 µg/mL; MIC (A601): 8 µg/mL; MIC 12156: 0.5 µg/mL

Question: Which results are given for `CCn1cc(C(=O)O)c(=O)c2cc(F)c(N3CCNCC3)cc21` [Norfloxacin, norfloxacin, reference compound]?
Answer: MIC (VRE12201): 4; MIC (MSSA9144): 2; MIC (M6; Normal (no PMBN)): 0.25; MIC (KP13368; Normal (no PMBN)): 4; MIC (VRE12204): 4; efflux by the strain (reserpine assay) (EMRSA 15 strain): effluxed; efflux by the strain (reserpine assay) (MSSA 9144 strain): effluxed; MIC (Ab17978; Normal (no PMBN)): 4; MIC (VSE775): 8; MIC (PA01; Normal (no PMBN)): 2
